Data taken from patent publication US20110060000A1, “ACRIDINE ANALOGS IN THE TREATMENT OF GLIOMAS” (priority 2009, published 2011).

Assays:
[1] = system: glioma cells; assay: Gliotoxicity, cell line not stated; format: cell-based; conditions: cell line not stated
Text: Spiperone is a selective D2 dopamine receptor antagonist. This drug is used in the treatment of schizophrenia and other hallucinatory states. […] In an effort to develop Structure-Activity Relationships around the chosen compounds, a search of commercially available compounds that are either close structural analogs of these lead compounds (for example, acridine and quinoline analogs of quinacrine) or are related to these in terms of their pharmacological activity (dopamine receptor antagonists related to spiperone) was performed.

[2] = system: GRP78 promoter; assay: GRP78-luc reporter assay in stably transfected U87-MG clone A5; format: cell-based, human; conditions: for GRP78 promoter driven luciferase (GRP78-luc) expression: result in words
Description: The promoter region contains the sequence of the GRP78 promoter from −139 to +7. In this part of the promoter there are three ER stress responsive elements and the TATA box to which is linked in frame the firefly luciferase sequence.
Compounds were plated in half area 96 well plates at the final concentration of 2 μM in 5 μl of media. Cells were added in 45 μl afterwards at the density of 5000/well. Plates were read after 16 h in an Envision high efficiency plate reader. Results are represented as a plate layout in which different shadings indicate the different rows and the number indicate the different lines. As a standard negative and positive controls were located in the outer columns.
A construct coding a large part of the human GRP78 promoter, attached to the reporter gene firefly luciferase was used (see FIG. 16 for a schematic) (Yoshida et al., 1998).
The promoter region contains the sequence of the GRP78 promoter from −139 to +7. In this part of the promoter there are three ER stress responsive elements and the TATA box to which is linked in frame the firefly luciferase sequence (FIG. 16)(Yoshida et al., 1998). The construct, which was cloned in an expression vector, was transfected into E. Coli, amplified, purified and checked it by enzymatic digestion. Thereafter, C6 and U87-MG were transiently transfected with the plasmid. After 24 hours the cells were challenged with THAP and TUN for 24 hours. Although, in transient transfection only a small part of the cell population expresses the transduced gene, a significant induction by THAP and TUN was detected over 24 hours. Armed with these encouraging data human glioma cells U87-MG were transfected with both the above described construct and a construct carrying resistance to blasticidin. The sensitivity of these cells to the antibiotic has previously been assessed. 24 hours after the transfection the antibiotic at its 75% inhibitory concentration was added. The cells were given time to proliferate. Two pools called P2 and P5 were selected and luciferase expression was assessed. […] Clones from these two pools were isolated. Luciferase expression in the clones was characterized and a clone called A5, in which baseline expression of the construct was reasonably low and induction with two positive controls was large and consistent, was selected. This clone, several back up clones, and the pools were amplified and frozen in sufficient amounts to guarantee continuity in case needed. Next, the effect of the incubation time on luciferase induction was assessed. Since this assay can be affected by false negative due to toxicity of hit compounds, the incubation times were kept as short as possible. Therefore, several incubation times were tested, including 8, 16 and 24 h. The goal was not to incubate longer than 24 hours because toxicity starts to develop at that time point. […] At this time point the induction is about 6-7 fold. Previously, using a different assay, a half a million compound library was screened very easily using 2.5 thousands cells per well in 1536 plates. […] With this cell number the dynamic range is large and the fold of induction of 6-7 is maintained.
It is common practice in the field of high throughput screening to assess the so called z number of the assay. This statistical parameter indicates the suitability of a given assay for high throughput screening. The z-value in a word describes the likelihood of a single point hit not to be false positive. The z value is a number lower than or equal to one. Values above 0.5 indicate a robust assay. Values below 0.5 but above 0 indicate an assay that probably needs to be run in duplicate. Negative values indicate assays whose predictability is very low. Z values are usually determined in a high density format plate usually a 96 well plate in manual conditions or a 384-1536 plate format in automated liquid handling environment. Z value determination has been performed using half area 96 well plates in manual mode. […]

[3] = system: tumor cells; conditions: in vitro and in vivo; cited from earlier work
[4] = system: subcutaneous U87-MG gliomas; assay: Mice bearing subcutaneous U87-MG gliomas; format: in vivo
Text: The estimated survival prolongment is 14 days in mice life which compares at 851 days in human life based on a life expectancy of 18 months in mice and 90 years in human. Also, since one animal was tumor-free at the end of the treatment that translates in an expected 16% cure rate.
FIG. 29a graphs % tumor weight/control as a function of days after implantation. […] Such a profile indicates effectiveness in vivo for both treatment and for prevention of relapse. FIG. 29b graphs % animal survival as a function of days after implantation. […] Such a profile indicates effectiveness in vivo for both treatment and for prevention of relapse.
Mice bearing subcutaneous gliomas were received daily oral administration of 200 mg/kg of quinacrine. […] In FIG. 29 is shown the effect of 100 mg/kg of quinacrine and 10 mg/kg 9-aminoacridine in Mice bearing subcutaneous U87-MG gliomas.

[5] = system: DNA; conditions: cited from earlier work
[6] = system: p53; conditions: cited from earlier work
[7] = system: U87-MG skin xenograft tumor explants; assay: U87-MG skin xenograft tumor explants, ERSR markers; format: in vivo, mice; conditions: samples after 7 and 21 days
Text: U7 represents vehicle treated sample after 7 days. U21 represents vehicle treated sample after 21 days. Q7 represents quinacridine-treated sample after 7 days. Q21 represents quinacridine-treated sample after 21 days. 9AA-7 represents 9-aminoacridine-treated sample after 7 days. 9AA-21 represents 9-aminoacridine-treated sample after 21 days.

[8] = system: NF-κB; conditions: tumor cells; cited from earlier work
[9] = system: C6; assay: [Ca2+]i measurement in C6; format: cell-based, rat
Text: (Statistical analysis it is shown in the inset. Values at the peak of the response have been analyzed using ANOVA followed by T-test, ** indicate P<0.01.).
Ca^2+ mobilization from ER was caused using an agonist acting via inositol trisphosphate elevation, mimicking physiological responses. In these conditions the dynamics of Ca^2+ transients were observe in these two cell lines. It appears evident that the plateau phase in C6 is consistently larger than in astrocytes.
Panel A: Challenge of astrocytes with ATP show the unchanged typical spike and plateau response. Panel B: In C6 an oscillatory pattern is readily detectable in response to treatment with TUN.
Tools and protocols have been developed to cleanly observe capacitative Ca^2+ entry (CCE), the phenomenon that allows the replenishment of intracellular Ca^2+ (ICS) stores and make quantitative and qualitative assessments. In particular, in astrocytes, capacitative Ca^2+ entry happens in absence of cytoplasmic Ca^2+ concentration ([Ca^2+]i) elevation (Grimaldi; 2006)(FIG. 1). […] The study was designed to investigate if there was a difference between astrocytes and glial cancer cells in this distinctive homeostatic pattern. The findings presented in this study, indicate that there are striking differences between glial cells and their cancer counterpart. The model utilizes rat cells but the observations extend and apply to human glioma cells as well. When the responses of normal astrocytes and C6 cells to thapsigargin (THAP), an agent able to block SERCA, therefore causing the release of Ca^2+ from the ER, were compared it was evident that C6 was more sensitive to the THAP (FIG. 2). However, the difference can be ascribed to one of many possibilities. […]
This phase is dependent on the balance of Ca^2+ influx triggered by store depletion and the reuptake in the ER due to SERCA activity. […] To investigate the role of influx triggered by ICS depletion, CCE was analyzed following THAP-induced depletion of ICS. […]

[10] = system: PLA2; conditions: coinjection with PLA2; cited from earlier work
[11] = system: phospholipase A2 (PLA2); conditions: cited from earlier work
[12] = system: C6; assay: TUNEL labeling in C6; format: cell-based, rat; conditions: C6, 24 hours
Description: C6 were plated on glass coverslips. Cells were fixed and stained accordingly to manufacturer instructions. Propidium staining of the nuclei was replaced by Hoechst included in the mounting media. Several images were acquired with a high resolution camera on a microscope equipped with a 10× long working distance dry lens and analyzed with powerful commercial software. Results were expressed in the graph as green labeled pixel counts. The images from the top to the bottom are respectively from N.T., DMSO, Thap 20 nM, Thap 200 nM, STS100 nM. The blue images reflect nuclear staining while the images on the right represent BRDU staining.
Thereafter, cells were harvested and protein extracted. Procaspase 12 band at 65 kDa was identified. In some of the treatments, the active product at 45 kDa was also detected. […] Conversely, in C6, higher GRP78 levels and the cell environment reflect significant caspase activation. […] Caspase activation in ERSR conditions was also confirmed with a TUNEL based apoptosis detection system in C6. […] High resolution images of the experiments were acquired and image morphometric analysis was performed to determine quantitative parameters of the staining as previously described (Pascale et al., 2004, “Translocation of protein kinase C-betaII in astrocytes requires organized actin cytoskeleton and is not accompanied by synchronous RACK1 relocation.” Glia 46(2): 169-82). […]

[13] = full dose over about 45 days, Q oral, 9-AA I.P.
[14] = half dose (maintenance dose) up to about 60 days

Question: For `Cl.Nc1c2ccccc2nc2ccccc12.O` [9-aminoacridine, hydrate, hydrochloride], which gliotoxicity [1] is on record?
Answer: The gliotoxicity was “causes gliotoxicity”.

Question: And the “GRP78 promoter driven luciferase (GRP78-luc) expression” value (“GRP78 promoter driven luciferase” below) ([2]; hydrate, hydrochloride)?
Answer: Its value is “causes increased expression of the GRP78-luc reporter gene”.

Question: Which “toxicity to tumor versus normal cells” value [3] does the source give for `Nc1c2ccccc2nc2ccccc12` [9-aminoacridine] here?
Answer: The value was “more toxic to tumor than to normal cells”.

Question: And the cure rate ([4]; 10 mg/kg 9-aminoacridine)?
Answer: The cure rate was 77%.

Question: What about the antiglioma action ([4]; 100 mg/kg of quinacrine and 10 mg/kg 9-aminoacridine) of the same compound?
Answer: Its antiglioma action is “powerful antiglioma action”.

Question: And the “tumor once survival rate stabilized” value ([4]; 9-AA I.P.)?
Answer: The value was “no sign of tumor”.

Question: And the “animal survival rate compared to control” value [4, 13]?
Answer: Its value is “increased survival rate”.

Question: And the “tumor size compared to control” value [4, 13]?
Answer: Its value is “decrease in tumor size”.

Question: What about the “animal survival rate compared to control” value [4, 14] of the same compound?
Answer: Its value is “survival rate was high”.

Question: What about the “tumor size compared to control” value [4, 14] of the same compound?
Answer: Its value is “tumor size remained relatively constant”.

Question: And the DNA damaging activity [5]?
Answer: The DNA damaging activity was “not found to show DNA damaging activity”.

Question: What about the “p53 activation and p53-dependent killing of tumor cell types” value [6] of the same compound?
Answer: The value was “capable of p53 activation and p53-dependent killing”.

Question: What about the “ERSR activation and GRP78 target protein in tumor explants” value [7] of the same compound?
Answer: The value was “activaiton of ERSR and changes in GRP78 target protein”.

Question: What about the “caspase 12 activation in tumor explants” value [7] of the same compound?
Answer: The value was “activation of caspase 12 is evident”.

Question: What about the “stimulated and basal constitutive NF-κB activity” value [8] of the same compound?
Answer: The value was “block stimulated NF-κB activity and also effectively reduce basal levels of constitutive NF-κB activity”.

Question: Which “[Ca2+]i response of C6 to ATP compared with astrocytes” value [9] does the source give for `Nc1ncnc2c1ncn2[C@@H]1O[C@H](COP(=O)(O)OP(=O)(O)OP(=O)(O)O)[C@@H](O)[C@H]1O` [ATP] here?
Answer: The value was “increased elevation of [Ca^2+]i”.

Question: Which gliotoxicity [1] does the source give for `CCN(CC)CCCC(C)Nc1c2cc(OC)ccc2nc2cc(Cl)c(N)cc12` (stereo not drawn) [OSSL-053454, 3-chloro-N^9-(5-(diethlyamino)pentan-2-yl)-7-methoxy acridine-2,9-diamine] here?
Answer: The gliotoxicity was “causes gliotoxicity similar to that caused by quinacrine”.

Question: And the gliotoxicity ([1]; listed as OSSL 53454)?
Answer: Its gliotoxicity is “causes gliotoxicity”.

Question: And the “GRP78 promoter driven luciferase” value [2]?
Answer: The value was “causes an increase of the GRP78-luc reporter gene similar to the increase caused by quinacrine”.

Question: And the “GRP78 promoter driven luciferase” value ([2]; listed as OSSL 53454)?
Answer: Its value is “causes an increase of the GRP78-luc reporter gene as quinacrine”.

Question: With `CCN(CC)CCCC(C)Nc1c2ccc(Cl)cc2nc2ccc(OC)cc12.Cl.Cl` (stereo not drawn) [quinacrine hydrochloride, 6-chloro-9-((4-(diethylamino)-1-methylbutyl)amino)-2-methoxyacridine dihydrochloride] as the compound, how does the “reduction of the inflammogenic potency of PLA2” value [10] read?
Answer: The value was 64%.

Question: What about the “PLA2 inhibition in platelets” value [11] of the same compound?
Answer: The value was “phospholipase A2 (PLA2) inhibitor”.

Question: Which “hit in Prestwick library screening (value above average of negative controls + 3 SD)” value ([2]; 2 μM, 5000 cells/well, read after 16 h) does the source give for `O=C(CCCN1CCC2(CC1)C(=O)NCN2c1ccccc1)c1ccc(F)cc1` [spiperone] here?
Answer: The value was “potentially attractive lead compounds”.

Question: For `CN[C@@H]1C[C@H]2O[C@@](C)([C@@H]1OC)n1c3ccccc3c3c4c(c5c6ccccc6n2c5c31)C(=O)NC4` [staurosporin], which TUNEL labeling [12] is on record?
Answer: The TUNEL labeling was “clear increase of TUNEL labeling”.
